According to ChEMBL document CHEMBL3271999, “Antimycotic imidazoles. 2. Synthesis and antimycotic properties of 1-[2-(arylalkyl)-2-phenylethyl]-1H-imidazoles” (1977):

Tests used:
Assay type in all cases: functional
Candida albicans = assay: Antifungal activity against Candida albicans assessed as lowest dose level for total inhibition of fungal growth
Mucor = assay: Antifungal activity against Mucor species assessed as lowest dose level for total inhibition of fungal growth
Aspergillus fumigatus = assay: Antifungal activity against Aspergillus fumigatus assessed as lowest dose level for total inhibition of fungal growth
Sporothrix schenckii = assay: Antifungal activity against Sporothrix schenckii assessed as lowest dose level for total inhibition of fungal growth
Saprolegnia = assay: Antifungal activity against Saprolegnia species assessed as lowest dose level for total inhibition of fungal growth
Phialophora verrucosa = assay: Antifungal activity against Phialophora verrucosa assessed as lowest dose level for total inhibition of fungal growth
[1] = test system: Erysipelothrix rhusiopathiae; assay: Antibacterial activity against Erysipelothrix insidiosa assessed as lowest dose level for total inhibition of bacterial growth
[2] = test system: Staphylococcus haemolyticus; assay: Antibacterial activity against Staphylococcus haemolyticus assessed as lowest dose level for total inhibition of bacterial growth
Streptococcus pyogenes = assay: Antibacterial activity against Streptococcus pyogenes assessed as lowest dose level for total inhibition of bacterial growth
Microsporum canis = assay: Antifungal activity against Microsporum canis assessed as lowest dose level for total inhibition of fungal growth
[3] = test system: Trichophyton mentagrophytes; assay: Antifungal activity against Trichophyton mentagrophytes assessed as lowest dose level for total inhibition of fungal growth
Trichophyton rubrum = assay: Antifungal activity against Trichophyton rubrum assessed as lowest dose level for total inhibition of fungal growth
Cryptococcus neoformans = assay: Antifungal activity against Cryptococcus neoformans assessed as lowest dose level for total inhibition of fungal growth
Candida tropicalis = assay: Antifungal activity against Candida tropicalis assessed as lowest dose level for total inhibition of fungal growth

Row | SMILES | Activity (Candida albicans) [µg/mL] | Activity (Mucor) [µg/mL] | Activity (Aspergillus fumigatus) [µg/mL] | Activity (Sporothrix schenckii) [µg/mL] | Activity (Saprolegnia) [µg/mL] | Activity (Phialophora verrucosa) [µg/mL] | Activity [1] [µg/mL] | Activity [2] [µg/mL] | Activity (Streptococcus pyogenes) [µg/mL] | Activity (Microsporum canis) [µg/mL] | Activity [3] [µg/mL] | Activity (Trichophyton rubrum) [µg/mL] | Activity (Cryptococcus neoformans) [µg/mL] | Activity (Candida tropicalis) [µg/mL]
1 | Clc1ccc(C(Cc2ccc(Cl)cc2Cl)Cn2ccnc2)cc1.O=[N+]([O-])O (stereo not drawn) | 100 | 100 | 100 | 10 | 100 | 100 | <1 | 10 | 1 | 10 | <1 | <1 | <1 | 100
2 | Cc1ccccc1C(Cc1ccc(Cl)cc1Cl)Cn1ccnc1.O=[N+]([O-])O (stereo not drawn) | 100 | 10 | 10 | 10 | 100 | 100 | 1 | 10 | 10 | 10 | <1 | <1 | 10 | 100
3 | Clc1ccc(COC(Cn2ccnc2)c2ccc(Cl)cc2Cl)c(Cl)c1 (stereo not drawn) [MICONAZOLE] | 10 | >100 | 10 | 1 | 10 | 100 | <1 | 10 | <1 | 1 | <1 | <1 | 1 | 100
4 | Clc1ccccc1C(Cc1c(Cl)cccc1Cl)Cn1ccnc1.O=[N+]([O-])O (stereo not drawn) | 100 | >100 | 10 | 10 | 100 | 100 | 1 | 1 | <1 | <1 | <1 | <1 | 10 | >100
5 | Cc1ccccc1C(Cc1ccc(Cl)cc1)Cn1ccnc1.O=[N+]([O-])O (stereo not drawn) | >100 | 100 | 100 | 100 | 100 | 100 | 1 | 10 | <1 | 10 | <1 | 10 | 10 | >100
6 | Clc1ccc(C(Cc2c(Cl)cccc2Cl)Cn2ccnc2)cc1.O=[N+]([O-])O (stereo not drawn) | >100 | 10 | 100 | 10 | 100 | 100 | <1 | 10 | <1 | 10 | <1 | 10 | <1 | >100
7 | Cc1ccccc1C(Cc1c(Cl)cccc1Cl)Cn1ccnc1.O=[N+]([O-])O (stereo not drawn) | >100 | 100 | 100 | 100 | 100 | 100 | <1 | 10 | <1 | 10 | <1 | <1 | 100 | >100
8 | Clc1ccc(C(CCc2ccccc2Cl)Cn2ccnc2)c(Cl)c1.O=[N+]([O-])O (stereo not drawn) | 10 | 100 | 100 | <1 | 100 | 100 | <1 | 1 | 1 | 10 | <1 | <1 | <1 | >100
9 | Clc1ccc(CC(Cn2ccnc2)c2ccccc2Br)cc1.O=[N+]([O-])O (stereo not drawn) | 10 | 100 | 100 | 10 | 100 | 100 | <1 | 10 | 1 | 100 | <1 | <1 | <1 | >100
10 | Clc1ccc(C(CCc2ccc(Br)cc2)Cn2ccnc2)c(Cl)c1.O=[N+]([O-])O (stereo not drawn) | >100 | >100 | 100 | 10 | 10 | 100 | <1 | 10 | <1 | 10 | <1 | <1 | <1 | 10
11 | Clc1ccc(C(Cc2c(Cl)cccc2Cl)Cn2ccnc2)c(Cl)c1.O=[N+]([O-])O (stereo not drawn) | 100 | 100 | 100 | <1 | 100 | 100 | 1 | 100 | 1 | 10 | <1 | <1 | <1 | 100
12 | Clc1ccc(C(Cc2ccccc2Cl)Cn2ccnc2)c(Cl)c1.O=[N+]([O-])O (stereo not drawn) | 100 | 100 | 100 | <1 | 10 | 10 | <1 | 10 | <1 | 10 | <1 | <1 | <1 | <1
